Where two headings read alike, the source gives them in different places.
Biological target: T1, human mGluR5A (Homo sapiens, UniProt P41594)
T1 construct: expressed in transfected cells
Test: FLIPR Ca2+ mobilization assay, potentiation in the presence of 300 nM glutamate (EC20)
Format: cell-based
Excerpt: The utility of the compounds in accordance with the present invention as positive allosteric modulators of metabotropic glutamate receptor activity, in particular mGluR5 activity, may be readily determined without undue experimentation by methodology well known in the art, including O'Brien et al., Molecular Pharmacology 2003, 64(3) 731-740. In particular, the compounds of the following examples had activity in reference assays by enhancing mGluR5 activity. […] Changes in intracellular Ca^2+ were measured with Fluo-4AM ester (Invitrogen/Molecular Probes), which was detected on a Fluorometric Imaging Plate Reader (FLIPR, Molecular Devices, Sunnyvale, Calif.). In a typical experiment the mGluR5 positive allosteric modulatory activity of the compounds of the present invention was determined in accordance with the following experimental method.
Cell Culture: Chinese Hamster Ovary (CHO) cells expressing human mGluR5A were maintained in growth medium containing DMEM, 10% dialyzed Fetal Bovine Serum, 50 units/mL Penicillin, 50 ug/mL Streptomycin, 2 mM L-glutamine, 1×MEM non-essential amino acids, 1 mM sodium pyruvate, 25 mM HEPES, 55 uM 2-mercaptoethanol, 5 ug/mL Puromycin, and 250 ug/mL Zeocin at 37° C. and 5% CO2. The day before the experiment, the cells were washed and seeded in “plating media” containing only DMEM, 10% dialyzed Fetal Bovine Serum, 50 units/mL Penicillin, and 50 ug/mL Streptomycin at a density of 50,000 cells/well (100 uL/well) in black 384-well clear-bottom PDL-coated plates. The cells were grown overnight at 37° C. and 6% CO2. This overnight glutamine/glutamate starvation allowed for consistent expression of the mGluR5A receptor, and the ability to add a known amount of agonist (glutamate in most cases) on the day of the experiment.
Fluorescent Ca^2+ mobilization (FLIPR) assay: The day of the experiment, the cells were washed with 37° C. Assay Buffer (Hanks Balanced Salt Solution with CaCl2 and MgCl2, 20 mM HEPES, 2.5 mM Probenecid, 0.1% BSA) with an automated plate washer (3×100 uL, aspiration 3 mm from bottom leaving ˜30 uL of buffer in each well). After washing, 30 uL of dye loading buffer (4 uM Fluo-4AM, 0.04% Pluronic acid, and 1% dialyzed FBS in assay buffer) were added to each well of the plates for 2 uM Fluo-4AM final concentration. The plates were incubated at 37° C. and 6% CO2 for 1 hour to allow for dye loading. After dye loading, the cells were washed again as above, and placed on the FLIPR. Assays were conducted with two possible scenarios: 1) To determine the potencies of the compounds, as either agonists of mGluR5 or potentiators of mGluR5 in the presence of a sub-threshold amount of glutamate, 10-point titrations of the compounds (1:3 dilution between each point, 30-0.0015 uM final concentrations) were added to the cells, followed by the addition of the EC20 of glutamate (300 nM) to the cells. 2) To determine the cooperativity of the compounds with the natural agonist (glutamate), single concentrations of the compounds were added to the cells, followed by the addition of a 10-point titration of glutamate (1:3 dilution between each point, 1000-0.05 uM final concentrations). […] For both scenarios above, operation of the FLIPR was the same. Baseline fluorescence was monitored for 10 seconds, followed by the addition of compounds diluted in Assay Buffer (1% DMSO concentration after this addition, 0.66% final DMSO concentration after agonist addition). After monitoring fluorescence for 5 minutes, during which time any intrinsic agonist activity of the compounds would have been detected, the agonist (glutamate) also diluted in assay buffer was then added to the cells. The response was then monitored for an additional 3 minutes. In scenario #1, the peak during the final 3 minutes was used for potentiator data, and the peak during the 5 minutes post compound addition was used for compound agonist data. […]

[1] = potentiation in presence of 300 nM glutamate, read-out: EC50 in potentiating/enhancing the mGluR5 receptor in the FLIPR assay
[2] = potentiation, CHO cells expressing human mGluR5A, in presence of 300 nM glutamate, inflection points, read-out: FLIPR EC50

T1 sequence (P41594 21-1180 isoform P41594-2 limits assumed): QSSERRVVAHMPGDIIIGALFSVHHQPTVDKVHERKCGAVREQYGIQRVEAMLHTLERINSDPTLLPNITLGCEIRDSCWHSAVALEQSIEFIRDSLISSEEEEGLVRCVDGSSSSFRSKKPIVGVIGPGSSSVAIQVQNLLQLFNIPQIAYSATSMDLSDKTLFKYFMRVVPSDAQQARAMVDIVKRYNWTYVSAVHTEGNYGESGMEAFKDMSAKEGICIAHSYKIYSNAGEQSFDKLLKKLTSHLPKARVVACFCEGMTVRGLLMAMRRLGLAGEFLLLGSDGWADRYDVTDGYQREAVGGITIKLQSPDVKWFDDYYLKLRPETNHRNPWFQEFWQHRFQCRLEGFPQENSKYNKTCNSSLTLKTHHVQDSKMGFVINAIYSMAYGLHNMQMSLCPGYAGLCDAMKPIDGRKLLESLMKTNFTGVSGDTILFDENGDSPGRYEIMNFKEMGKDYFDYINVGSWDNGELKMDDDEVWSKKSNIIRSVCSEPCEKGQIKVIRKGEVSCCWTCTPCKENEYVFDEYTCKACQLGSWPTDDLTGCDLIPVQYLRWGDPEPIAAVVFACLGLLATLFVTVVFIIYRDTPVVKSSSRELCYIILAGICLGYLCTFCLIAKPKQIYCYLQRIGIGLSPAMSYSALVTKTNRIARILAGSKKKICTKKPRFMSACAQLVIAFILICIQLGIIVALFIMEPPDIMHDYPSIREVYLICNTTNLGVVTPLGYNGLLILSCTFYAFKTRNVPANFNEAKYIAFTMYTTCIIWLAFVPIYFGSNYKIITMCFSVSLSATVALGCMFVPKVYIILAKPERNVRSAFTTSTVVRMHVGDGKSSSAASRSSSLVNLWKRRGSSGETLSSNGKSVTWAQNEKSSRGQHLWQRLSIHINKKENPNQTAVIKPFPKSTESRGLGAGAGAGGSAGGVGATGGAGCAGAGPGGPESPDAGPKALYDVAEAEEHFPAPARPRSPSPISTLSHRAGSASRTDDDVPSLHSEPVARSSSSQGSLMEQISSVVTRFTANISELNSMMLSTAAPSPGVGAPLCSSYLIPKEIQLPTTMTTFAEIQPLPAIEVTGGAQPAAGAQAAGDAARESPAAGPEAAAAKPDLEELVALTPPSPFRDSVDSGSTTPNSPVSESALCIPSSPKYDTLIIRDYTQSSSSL

In the case of `C[C@@H]1CC[C@H](c2noc(-c3ccc(F)cn3)n2)CN1C(=O)c1ccc(F)cc1` [Example 4-4, 5-Fluoro-2-{3-[(3S,6R)-1-(4-fluorobenzoyl)-6-methylpiperidin-3-yl]-1,2,4-oxadiazol-5-yl}pyridine], the EC50 [1] is reported as less than 1000 nM and the EC50 [2] is reported as 210 nM.
In the case of `C[C@@H]1CC[C@H](c2nc(-c3cc(Cl)c[nH]3)no2)CN1C(=O)c1ccc(F)cc1` [Example 5-5, (2R,5S)-5-[3-(4-Chloro-1H-pyrrol-2-yl)-1,2,4-oxadiazol-5-yl]-1-(4-fluorobenzoyl)-2-methylpiperidine], the EC50 [1] is reported as less than 1000 nM and the EC50 [2] is reported as 19 nM.
With `C[C@@H]1CC[C@H](c2noc(-c3ccc(F)cc3)n2)CN1C(=O)c1ccc(F)cc1` [Example 1-16, (2R,5S)-1-(4-fluorobenzoyl)-5-[5-(4-fluorophenyl)-1,2,4-oxadiazol-3-yl]-2-methylpiperidine] the EC50 [1] was less than 1000 nM and the EC50 [2] was 124 nM.
`C[C@@H]1CC[C@H](c2nc(-c3cc(Cl)c[nH]3)no2)CN1C(=O)c1ccc(F)nc1` [Example 9-18, 5-({(2R,5S)-5-[3-(4-chloro-1H-pyrrol-2-yl)-1,2,4-oxadiazol-5-yl]-2-methylpiperidin-1-yl}carbonyl)-2-fluoropyridine] gave an EC50 [1] of less than 1000 nM and an EC50 [2] of 91 nM.
In the case of `COc1cc(C(=O)N2C[C@@H](c3nc(-c4cc(Cl)c[nH]4)no3)CC[C@H]2C)ccn1` [Example 9-22, 4-({(2R,5S)-5-[3-(4-chloro-1H-pyrrol-2-yl)-1,2,4-oxadiazol-5-yl]-2-methylpiperidin-1-yl}carbonyl)-2-methoxypyridine], the EC50 [1] is reported as less than 1000 nM and the EC50 [2] is reported as 55 nM.
In the case of `C[C@@H]1CC[C@H](c2noc(-c3cc(Cl)c[nH]3)n2)CN1C(=O)c1ccc(F)cc1` [Example 2-4, (2R,5S)-5-[5-(4-chloro-1H-pyrrol-2-yl)-1,2,4-oxadiazol-3-yl]-1-(4-fluorobenzoyl)-2-methylpiperidine], the EC50 [1] is reported as less than 1000 nM and the EC50 [2] is reported as 25 nM.
In the case of `C[C@H]1CC[C@@H](c2noc(-c3cc(Cl)c[nH]3)n2)CN1C(=O)c1ccc(F)cc1` [Example 2-3, (2S,5R)-5-[5-(4-chloro-1H-pyrrol-2-yl)-1,2,4-oxadiazol-3-yl]-1-(4-fluorobenzoyl)-2-methylpiperidine], the EC50 [1] is reported as less than 1000 nM and the EC50 [2] is reported as 486 nM.
`C[C@@H]1CC[C@H](c2noc(-c3cc(Cl)c[nH]3)n2)CN1C(=O)c1ccc(F)nc1` [Example 9-9, 5-({(2R,5S)-5-[5-(4-chloro-1H-pyrrol-2-yl)-1,2,4-oxadiazol-3-yl]-2-methylpiperidin-1-yl}carbonyl)-2-fluoropyridine] gave an EC50 [1] of less than 1000 nM and an EC50 [2] of 146 nM.

Source: US20120040998A1, “2-ALKYL PIPERIDINE MGLUR5 RECEPTOR MODULATORS” (priority 2009, published 2012)
